The assay concerns the target S. pyogenes SKKanGAS, kanamycin survival, BacTiterGlo, 6 h. In words: SKKanGAS survival reduction under kanamycin, dose response, streptokinase promoter inhibitor project, SKKanGAS strain, luminescence, dose confirmation (AID 1902).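 Also: lower survival reflects blocked streptokinase promoter driving kanamycin resistance gene.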

Molecules are shown by their SMILES. Activity calls are given as the source filed them.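 The calls were made as follows: active = EC50 no more than a set limit of log units above the highest dose; inactive = the rest.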

We go through 64 molecules from PubChem BioAssay AID1902 (Broad Institute, 2009).

With `COc1ccc(C(NC(C)=O)c2cc(Cl)c3cccnc3c2O)cc1OC` (centres undefined), the EC50 was 5.2 µM.

`O=S(=O)(c1ccccc1)N1CCN=C1SCc1c(F)cccc1Cl`: the EC50 is 8.15 µM.

Turning to `O=C(CN1CCc2ccccc2C1)Nc1ccccc1N1CCCCCC1`, the EC50 is 2.42 µM.

For the molecule `Cc1cccc(NC(=O)C(=O)NNC(=O)c2ccc(C(C)(C)C)cc2)c1`, the EC50 is 5.41 µM.

For `CCOc1ccc(N=Nc2ccc(O)c3ncccc23)cc1`, the EC50 was 0.186 µM.

Take `Cc1ccc(C)c(CN2CCCN(Cc3cc(C)ccc3C)S2(=O)=O)c1`: the EC50 is 2.58 µM.

In the case of `Cc1ccc(C(=O)Nc2nnc(S(=O)(=O)N3CCN(c4ccc(F)cc4)CC3)s2)cc1`, the EC50 was > 15 µM (inactive).

On to `Cn1ncc2c(Nc3cccc(Cl)c3)nc(Nc3cccc(Cl)c3)nc21`, for which the EC50 is 2.67 µM.

In the case of `O=[N+]([O-])c1ccc(Cl)cc1Sc1nc2ccccc2o1`, the EC50 was 1.67 µM.

`Cc1ccc(C)c(CSC2=NCCN2S(=O)(=O)c2ccccc2)c1`: the EC50 is 15.7 µM.

`Cc1ccccc1OCC(=O)NC(=S)Nc1ccc(Br)c(C)n1`: the EC50 was > 15 µM (inactive).

On to `Cc1cccc(Nc2nnc(-c3ccc(N4CCOCC4)c([N+](=O)[O-])c3)c3ccccc23)c1`, for which the EC50 was 4.52 µM.

Take `O=C(CN(C(=O)Cn1nnc(-c2ccccc2F)n1)c1cccc2c1CCCC2)NCc1ccccc1`: the EC50 is 5.32 µM.

Regarding `Cc1cc(/C=C2\SC(=S)NC2=O)c(C)n1-c1ccc(O)cc1`, the EC50 was 1.1 µM.

As for `CC[C@@H](C)[C@H](NC(=O)OC(C)(C)C)c1nnc(S(=O)(=O)Cc2cc(C)ccc2C)o1`, the EC50 was 9.66 µM.

Consider `O=C(O)c1ccc2c3c(ncnc13)-c1ccccc1C2=O`, for which the EC50 was 5.26 µM.

On to `CC1CC(=O)c2c(cc3c(-c4c(O)cc(O)c5c(O)c6c(cc45)OC(C)CC6=O)c(O)cc(O)c3c2O)O1` (centres undefined), for which the EC50 is 0.501 µM.

As to `COc1ccc(NC(=S)N=Nc2c(O)[nH]c3ccccc23)cc1`, the EC50 was 1.09 µM.

Turning to `COc1cc(C(=O)NNC(=S)NC(=O)c2ccccc2C)cc(OC)c1OC`, the EC50 is 1.88 µM.

In the case of `COc1cccc(-c2nc(N3CC(C)CC(C)C3)c3ccccc3n2)c1O` (centres undefined), the EC50 was 3.05 µM.

`Clc1ccccc1C(c1ccccc1)(c1ccccc1)n1ccnc1`: the EC50 was 6.21 µM.

For `COc1ccc(C(Nc2cc(C)ccn2)c2ccc3ccc(C)nc3c2O)cc1` (centres undefined), the EC50 is 12.5 µM.

In the case of `O=C(N/N=C/c1cc([N+](=O)[O-])ccc1O)/C(=C\c1cccs1)NC(=O)c1ccccc1`, the EC50 was 1.81 µM.

For `O=[N+]([O-])c1ccc(-c2nc(Nc3cccc(O)c3)c3ccccc3n2)cc1`, the EC50 was 10.7 µM.

With `COc1cccc(C(=O)Nc2nc(-c3ccccc3)c(-c3ccccc3)o2)c1`, the EC50 is 0.881 µM.

As for `Cc1cc(C)c2c(C(C)(C)C)nn(-c3ccccc3)c2n1`, the half-maximal effective concentration (EC50) was 2.97 µM.

Take `CCOC(=O)c1c(NC(=S)NCCc2ccccc2)sc2c1CC(C(C)C)OC2` (centres undefined): the EC50 was 0.602 µM.

With `O=C(/C=C/c1ccc(F)cc1)NC(=S)NNC(=O)c1cnccn1`, the EC50 was 1.96 µM.

As to `O=C(CC1CC2CCC1C2)Nc1nc(-c2ccccn2)cs1` (centres undefined), the EC50 is 2.4 µM.

`O=C(c1nc2ccc(Cl)cn2c1CN1CCC(CO)CC1)N1CCc2ccccc2C1`: the EC50 was > 15 µM (inactive).

As for `Oc1c(C(Nc2nc3ccccc3s2)c2ccco2)ccc2cccnc12` (centres undefined), the EC50 is 2.98 µM.

In the case of `C/C(=N\NC(=O)c1cc2ccccc2cc1O)c1cc2ccccc2o1`, the EC50 is 1.47 µM.

Consider `O=C(NC(=S)N1CCN(c2nc(-c3ccccc3)cs2)CC1)c1cncc(Br)c1`, for which the EC50 is 1.2 µM.

As for `O=C(CCn1cnc(-c2ccccc2)c1-c1ccccc1)N/N=C/c1ccccc1O`, the EC50 was 0.522 µM.

Turning to `Cc1ccc(-c2csc(NC(=O)c3ccc([N+](=O)[O-])o3)n2)cc1`, the EC50 is 3.42 µM.

With `O=C(O)c1ccc(N2C(=O)CC(SC(=NCc3ccc4c(c3)OCO4)Nc3ccc(F)cc3)C2=O)cc1` (centres undefined), the EC50 was 8.24 µM.

Consider `C[C@H](CCC(=O)NCC(=O)O)[C@H]1CC[C@H]2C3[C@H](O)C[C@@H]4C[C@H](O)CC[C@]4(C)[C@H]3C[C@H](O)[C@]12C` (some centres undefined), for which the EC50 was > 15 µM (inactive).

On to `Brc1cc(-c2ccccc2)nc(-c2ccccc2)n1`, for which the EC50 was 12.1 µM.

In the case of `Cc1nn(-c2ccccc2)c2c1C(c1ccc(O)c(O)c1)N1C(=N2)C(Nc2ccccc2)=Nc2ccccc21` (centres undefined), the EC50 was 1.36 µM.

In the case of `Cc1cc(C)cc(-n2c(C)cc(/C=C3\C(=N)N4N=C(CC(C)C)SC4=NC3=O)c2C)c1`, the EC50 is 2.67 µM.

Regarding `CCc1ccc2c(c1)C1(NN=C(c3ccccc3)S1)C(=O)N2` (centres undefined), the EC50 was 0.245 µM.

Consider `CCCc1sc(N/N=C/c2ccccn2)nc1-c1ccc(F)cc1`, for which the EC50 is 9.33 µM.

Turning to `COc1ccc2c(c1)c(CC(=O)Nc1cccc(S(N)(=O)=O)c1)c(C)n2C(=O)c1ccc(Cl)cc1`, the EC50 is 3.28 µM.

Consider `Oc1ccc(Cl)cc1-c1cc(-c2cccc(Br)c2)n[nH]1`, for which the EC50 is 3.62 µM.

With `C/C(N)=C(/C#N)C(=O)CSc1nc2cc(Cl)ccc2c(=O)n1Cc1ccco1`, the EC50 is 8.74 µM.

Turning to `Cc1ccc(C23CC4CC(CC(C(=O)N5CCN(C)CC5)(C4)C2)C3)cc1`, the EC50 was > 15 µM (inactive).

In the case of `Cc1ccc(C(C)C)c(OCc2ccc(C(=O)N/N=C/c3ccc(O)cc3O)cc2)c1`, the EC50 is 1.26 µM.

As to `COc1ccc(NC(=O)c2nc[nH]c2C(=O)N[C@@H](CC(C)C)C(=O)OC(C)(C)C)cc1`, the EC50 was 3.28 µM.

On to `CC[C@H]1OC(=O)[C@H](C)[C@@H](O[C@H]2C[C@@](C)(OC)[C@@H](O)[C@H](C)O2)[C@H](C)[C@@H](O[C@@H]2O[C@H](C)C[C@H](N(C)C)[C@H]2O)[C@](C)(O)C[C@@H](C)[C@@H]2N[C@@H](COCCOC)O[C@H]([C@H]2C)[C@]1(C)O`, for which the EC50 was less than 0.06 µM.

Regarding `COc1ccc(-c2cc(C(=O)NNC(=S)NC(=O)c3c(-c4ccccc4)noc3C)[nH]n2)cc1`, the EC50 was 0.2 µM.

On to `COc1cccc(N2C(N)=NC(N)=NC2(C)C)c1`, for which the EC50 is 0.318 µM.

As for `O=C(Nc1ccc(Cl)c(Cl)c1)Nc1ccon1`, the EC50 was 14.5 µM.

As for `COc1ccc(-c2c(C#N)c(N)nc3sc(C(=O)c4ccccc4)c(N)c23)cc1`, the EC50 was 5.9 µM.

With `Nc1nc(NCCOCCO)nc(N2CCCCCC2)c1[N+](=O)[O-]`, the EC50 was 5.78 µM.

In the case of `CCn1cc(C(=O)NCc2ccc3c(c2)OCO3)c(=O)c2cc(F)c(N3CCN(C(=O)c4ccco4)CC3)cc21`, the EC50 is 9.9 µM.

`O=C(Nc1cccc(Cl)c1N1CCCC1)c1ccc(Br)o1`: the EC50 was 5.82 µM.

`COC(=O)c1cc(-c2cccc(OC)c2)c2c(=O)[nH]c(=O)n(C)c2n1`: the EC50 was 4.31 µM.

Take `Nc1sc(-c2ccccc2)cc1C(=O)N/N=C/c1ccc(Cl)cc1`: the EC50 is 5.73 µM.

Turning to `Cc1ccccc1OCC(=O)Nc1ccccc1N1CCC(C)CC1`, the EC50 was 7.48 µM.

As to `O=C(NC12CC3CC(CC(C3)C1)C2)c1ccc(-c2ccc(Br)cc2)o1`, the EC50 was 11 µM.

With `CC(C)S(=O)(=O)c1csc(NC(=O)Nc2cc(Cl)ccc2Cl)c1Cl`, the EC50 was 1.65 µM.

For `O=S(=O)(Nc1ccc(-n2cccc2)cc1)c1ccc(Cl)c(Cl)c1`, the EC50 was 6.21 µM.

Consider `Cc1ccc(/C=C2/Sc3ccc(C(=O)N4CCN(c5ccccn5)CC4)cc3NC2=O)cc1`, for which the EC50 was 1.91 µM.

In the case of `C=CCn1c(COc2ccccc2)nnc1SCC(=O)N/N=C/c1cc(Cl)ccc1O`, the EC50 was 3.32 µM.

What is called EC50 is the concentration needed to bring the measured effect to its halfway point.
